From patent EP4741383A1, “COMPOUND AND USE THEREOF AS ANTI-CANCER DRUG” (Tyligand Bioscience (Shanghai) Limited, priority 2023, dated 2025)

Molecular target: T1, CYP1A2 (Homo sapiens, UniProt P05177)
T1 construct: tissue Corning or Xenotech; host or cells: human liver microsomes
T1 sequence (P05177 1-516): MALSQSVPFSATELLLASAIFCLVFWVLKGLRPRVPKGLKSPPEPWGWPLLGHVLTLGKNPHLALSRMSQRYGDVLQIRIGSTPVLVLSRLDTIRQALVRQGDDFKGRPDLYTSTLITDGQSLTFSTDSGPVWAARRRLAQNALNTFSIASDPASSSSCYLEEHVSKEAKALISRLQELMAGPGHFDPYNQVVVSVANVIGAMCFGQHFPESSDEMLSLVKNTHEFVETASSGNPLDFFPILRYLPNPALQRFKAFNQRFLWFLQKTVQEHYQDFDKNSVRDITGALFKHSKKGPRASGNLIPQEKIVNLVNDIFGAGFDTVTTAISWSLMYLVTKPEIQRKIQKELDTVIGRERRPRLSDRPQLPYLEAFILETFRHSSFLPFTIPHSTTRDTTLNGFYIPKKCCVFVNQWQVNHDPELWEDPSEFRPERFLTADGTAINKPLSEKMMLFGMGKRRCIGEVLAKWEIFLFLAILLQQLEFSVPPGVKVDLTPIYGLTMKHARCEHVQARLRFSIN
Experiment: CYP450 inhibition in human liver microsomes, CYP1A2
Format: in vitro ADME
Settings: pH 7.4, read-out: % CYP inhibition @ 10 µM 1A2
Text: According to standard methods in the field for the study of cytochrome P450 enzyme systems, such as the method described in Kerns, Edward H. and Di Li et al., Drug-like Properties: Concepts, Structure Design and Methods: from ADME to Toxicity Optimization (2008), San Diego, Academic Press, and Lin, Tong et al., In Vitro Assessment of Cytochrome P450 Inhibition: Strategies for Increasing LC/MS-Based Assay Throughput Using a One-Point IC50 Method and Multiplexing High-Performance Liquid Chromatography (J. Pharm. Sci. 2007, 96 (9), 2485). The inhibitory effect of the disclosed compounds on the cytochrome P450 enzyme system was similarly examined below.
Human liver microsomes were purchased from Corning or Xenotech. The test compounds were evaluated by detecting the metabolism of substrates for different Cyp450 isoforms by human liver microsomes.
0.1 M potassium phosphate buffer (K-buffer, pH 7.4) was pre-warmed.
100 mM K-buffer was prepared by mixing 9.5 mL of stock solution A (1 M potassium dihydrogen phosphate, prepared by dissolving 136.5 g of potassium dihydrogen phosphate in 1 L of Milli-Q water) with 40.5 mL of stock solution B (1 M potassium hydrogen phosphate, prepared by dissolving 174.2 g of potassium hydrogen phosphate in 1 L of Milli-Q water). The total volume was adjusted to 500 mL with Milli-Q water, and the buffer was titrated to pH 7.4 using KOH or H3PO4.
Test compound solution and specific inhibitor solution (400× dilution) were prepared in a 96-well plate. For the test compound, 8 µL of 10 mM test compound was transferred into 12 µL of ACN. For specific inhibitors of CYP1A2, CYP2C9, and CYP2D6: 12 µL of 1 mM α-naphthoflavone, 10 µL of 40 mM sulfaphenazole, 10 µL of 10 mM quinidine, and 8 µL of DMSO were mixed. For specific inhibitors of CYP3A4, CYP2B6, CYP2C8, and CYP2C19: 8 µL of DMSO stock solution was added to 12 µL of ACN.
A 4× diluted NADPH solution was prepared by dissolving 66.7 mg of NADPH in 10 mL of 0.1 M K-buffer (pH 7.4). […]

inhibition at 10 min, 10 µM [%] | SMILES
17.1 | O=C(Nc1ccc(-c2cc3cc(F)c(-c4nnn[nH]4)cc3n2C2CCC2)cc1)C(=O)Nc1ccc(N2CCC(CO)CC2)cc1 [Example 23]
9.47 | O=C(Nc1ccc(-c2cc3cc(F)c(-c4nnn[nH]4)cc3n2C2CCC2)cc1)C(=O)Nc1ccc(N2CCC3(CCOC3)CC2)cc1 [Example 67]
11.4 | CC1(n2c(-c3ccc(NC(=O)C(=O)Nc4ccc(N5CCC6(CCOC6)CC5)cc4)cc3)cc3cc(F)c(-c4nnn[nH]4)cc32)CCC1 [Example 68]
